In patent publication US20260042755A1, “GPR6 INVERSE AGONISTS” (MapLight Therapeutics, Inc., priority 2022, published 2026):

Tests used:
GPR6 = biological target: T1, GPR6 (Homo sapiens, UniProt P46095); test: GPR6 antagonist functional cAMP assay (LANCE Ultra cAMP TR-FRET, CHO cells stably expressing GPR6); assay type: cell-based
T1 construct: expressed in transfected cells; host or cells: CHO cells
Method in brief: (§1)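 Read-out was TR-FRET cAMP signal at 665 nm after 1 h at room temperature, following 45 min compound exposure at 37 °C. Assay buffer contained 0.1% BSA and 150 μM Ro 20-1724. Antagonist IC50s were fitted with a 4-parameter logistic against DMSO and reference controls.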

GPR3 = biological target: T2, GPR3 (Homo sapiens, UniProt P46089); test: GPR3 antagonist functional cAMP assay (LANCE Ultra cAMP TR-FRET, CHO cells stably expressing GPR3); assay type: cell-based
T2 construct: expressed in transfected cells; host or cells: CHO cells
T2 sequence (P46089 whole entry, species assumed): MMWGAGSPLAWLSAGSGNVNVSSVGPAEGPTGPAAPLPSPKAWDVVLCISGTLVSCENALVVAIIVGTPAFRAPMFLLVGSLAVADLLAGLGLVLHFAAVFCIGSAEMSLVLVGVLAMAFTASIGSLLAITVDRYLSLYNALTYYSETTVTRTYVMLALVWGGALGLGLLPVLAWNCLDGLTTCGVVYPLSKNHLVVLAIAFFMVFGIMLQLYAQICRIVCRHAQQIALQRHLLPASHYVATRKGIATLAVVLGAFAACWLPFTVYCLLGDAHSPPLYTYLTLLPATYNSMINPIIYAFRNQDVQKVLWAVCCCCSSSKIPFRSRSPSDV
Method in brief: as §1

[1] = CHO cells stably expressing GPR6, cAMP assay
[2] = CHO cells stably expressing GPR3, cAMP assay
[3] = CHO cells stably expressing GPR6, cAMP assay (Example 24)
[4] = CHO cells stably expressing GPR3, cAMP assay (Example 24)
[5] = procedure as described in Example 24

T1 sequence (P46095 whole entry): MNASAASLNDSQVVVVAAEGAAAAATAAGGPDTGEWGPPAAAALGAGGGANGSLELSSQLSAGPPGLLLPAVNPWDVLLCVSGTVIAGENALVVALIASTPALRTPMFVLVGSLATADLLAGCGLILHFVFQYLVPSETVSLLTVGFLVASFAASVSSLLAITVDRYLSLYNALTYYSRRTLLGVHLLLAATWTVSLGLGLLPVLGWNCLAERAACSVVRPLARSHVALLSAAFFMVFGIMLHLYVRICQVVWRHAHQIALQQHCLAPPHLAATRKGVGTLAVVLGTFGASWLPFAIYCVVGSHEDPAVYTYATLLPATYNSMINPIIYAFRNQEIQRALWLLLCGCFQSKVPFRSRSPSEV

IC50 (GPR6; procedure of Example 24) [nM]	IC50 (GPR3; procedure of Example 24) [nM]	IC50 (GPR6; [3]) [nM]	IC50 (GPR3; [4]) [nM]	Molecule	further results
≥ 30000	1000 to 30000	–	–	CC(=O)N1CCc2nc(N3CCCC(Oc4cccc(F)c4)C3)c(-c3cnn(C)c3)nc2C1 (stereo not shown) [Compound 337, 1-{2-[3-(3-fluorophenoxy)piperidin-1-yl]-3-(1-methyl-1H-pyrazol-4-yl)-5H,6H,7H,8H-pyrido[3,4-b]pyrazin-6-yl}ethan-1-one]	–
–	–	–	–	CC(C)(O)[C@@H](O)c1cc2nc(N3CCC(Oc4ccc(F)cc4F)CC3)c(-c3cnn(C(F)F)c3)nc2cn1 (single isomer, unassigned) [Compound 555]	IC50 (GPR6; [1]): 100 to 1000 nM; IC50 (GPR3; [2]): 1000 to 30000 nM
< 100	1000 to 30000	–	–	CN(C)C(=O)N1CCc2nc(N3CCC(Oc4ccc(F)cc4F)CC3)c(-c3ccc(F)c(N)n3)nc2C1 [Compound 629, 6-{6-(N,N-dimethylcarbamoyl)-2-[4-(2,4-difluorophenoxy)-1-piperidyl]-5,6,7,8-tetrahydro-1,4,6-triaza-3-naphthyl}-3-fluoro-2-pyridylamine]	–
–	–	100 to 1000	1000 to 30000	CC(=O)N1CCc2nc(N3CCC(Oc4ccc(F)cc4F)CC3)c(-c3c[nH]c(C)n3)nc2C1 [Compound 116, 1-{2-[4-(2,4-difluorophenoxy)piperidin-1-yl]-3-(2-methyl-1H-imidazol-4-yl)-5H,6H,7H,8H-pyrido[3,4-b]pyrazin-6-yl}ethan-1-one]	–
–	–	≥ 30000	≥ 30000	CC(=O)N1CCc2nc(N3CCC(Oc4ccc(F)cc4F)CC3)c(C3CCCC(=O)N3)nc2C1 (stereo not shown) [Compound 258, 6-{6-acetyl-2-[4-(2,4-difluorophenoxy)piperidin-1-yl]-5H,6H,7H,8H-pyrido[3,4-b]pyrazin-3-yl}piperidin-2-one]	–
–	–	100 to 1000	1000 to 30000	Cn1cc(-c2nc3cnc(C4CNC(=O)CO4)cc3nc2N2CCC(Oc3ccc(F)cc3F)CC2)cn1 (stereo not shown) [Compound 464, 6-(2-(4-(2,4-difluorophenoxy)piperidin-1-yl)-3-(1-methyl-1H-pyrazol-4-yl)pyrido[3,4-b]pyrazin-7-yl)morpholin-3-one]	–
–	–	< 100	1000 to 30000	CC(C)S(=O)(=O)N1CCc2nc(N3CCC(Oc4ccc(F)cc4F)CC3)c(-c3cn[nH]c3)nc2C1 [Compound 150, 4-(2,4-difluorophenoxy)-1-[6-(propane-2-sulfonyl)-3-(1H-pyrazol-4-yl)-5H,6H,7H,8H-pyrido[3,4-b]pyrazin-2-yl]piperidine]	–
–	–	1000 to 30000	1000 to 30000	CC(=O)N1CCc2nc(N3CCC(Oc4ccc(F)cc4F)CC3)c(-c3cccc(C(O)C(F)F)n3)nc2C1 (stereo not shown) [Compound 210, 1-(3-[6-(2,2-difluoro-1-hydroxyethyl)pyridin-2-yl]-2-[4-(2,4-difluorophenoxy)piperidin-1-yl]-5H,6H,7H,8H-pyrido[3,4-b]pyrazin-6-yl)ethan-1-one]	–
–	–	1000 to 30000	1000 to 30000	CC(=O)N1CCc2nc(N3CCC(Oc4ccc(F)cc4F)CC3)c(-c3cnn(C4CN(C)C4)c3)nc2C1 [Compound 212, 1-{2-[4-(2,4-difluorophenoxy)piperidin-1-yl]-3-[1-(1-methylazetidin-3-yl)-1H-pyrazol-4-yl]-5H,6H,7H,8H-pyrido[3,4-b]pyrazin-6-yl}ethan-1-one]	–
100 to 1000	1000 to 30000	–	–	CC(C)(O)C(O)c1cc2nc(-c3cnn(C(F)F)c3)c(N3CCC(=Cc4ccc(F)cc4F)CC3)nc2cn1 (single isomer, unassigned) [Compound 767]	–
1000 to 30000	1000 to 30000	–	–	CC(=O)N1CCc2nc(N3CCN(Cc4ccc(OC(F)F)cc4F)CC3)c(-c3cnn(C)c3)nc2C1 [Compound 358, 1-[2-(4-{[4-(difluoromethoxy)-2-fluorophenyl]methyl}piperazin-1-yl)-3-(1-methyl-1H-pyrazol-4-yl)-5H,6H,7H,8H-pyrido[3,4-b]pyrazin-6-yl]ethan-1-one]	–
100 to 1000	1000 to 30000	–	–	CC(C)(O)C(=O)c1cc2nc(N3CCN(Cc4ccccc4F)CC3)c(-c3cnn(C(F)F)c3)nc2cn1 [Compound 618, 1-{3-[1-(difluoromethyl)-4-pyrazolyl]-2-{4-[(o-fluorophenyl)methyl]-1-piperazinyl}-1,4,6-triaza-7-naphthyl}-2-hydroxy-2-methyl-1-propanone]	–
–	–	100 to 1000	1000 to 30000	COCCNc1cc2nc(N3CCC(Oc4ccc(F)cc4F)CC3)c(-c3cnn(C)c3)nc2cn1 [Compound 380, 2-[4-(2,4-difluorophenoxy)piperidin-1-yl]-N-(2-methoxyethyl)-3-(1-methyl-1H-pyrazol-4-yl)pyrido[3,4-b]pyrazin-7-amine]	–
–	–	100 to 1000	1000 to 30000	COc1ccc(-c2nc3c(nc2N2CCC(Oc4ccc(F)cc4F)CC2)CCN(C(C)=O)C3)nn1 [Compound 189, 1-{2-[4-(2,4-difluorophenoxy)piperidin-1-yl]-3-(6-methoxypyridazin-3-yl)-5H,6H,7H,8H-pyrido[3,4-b]pyrazin-6-yl}ethan-1-one]	–
–	–	100 to 1000	1000 to 30000	COCC(O)c1cc2nc(N3CCC(Oc4ccc(F)cc4F)CC3)c(-c3cnn(C)c3)nc2cn1 (stereo not shown) [Compound 437, 1-(2-(4-(2,4-difluorophenoxy)piperidin-1-yl)-3-(1-methyl-1H-pyrazol-4-yl)pyrido[3,4-b]pyrazin-7-yl)-2-methoxyethan-1-ol]	–
–	–	–	–	CC(=O)N1CCc2nc(N3CCC(Oc4ccc(F)cc4F)CC3)c(-c3ncco3)nc2C1 [Compound 18, 1-{2-[4-(2,4-difluorophenoxy)piperidin-1-yl]-3-(1,3-oxazol-2-yl)-5H,6H,7H,8H-pyrido[3,4-b]pyrazin-6-yl}ethan-1-one]	IC50 (GPR6; [5]): 1000 to 30000 nM; IC50 (GPR3; [5]): 100 to 1000 nM
1000 to 30000	100 to 1000	–	–	CC(=O)N1CCc2nc(N3CCN(Cc4c(F)cccc4F)CC3)c(-c3cnn(C)c3)nc2C1 [Compound 346, 1-(2-{4-[(2,6-difluorophenyl)methyl]piperazin-1-yl}-3-(1-methyl-1H-pyrazol-4-yl)-5H,6H,7H,8H-pyrido[3,4-b]pyrazin-6-yl)ethan-1-one]	–
–	–	100 to 1000	1000 to 30000	N#CCN1CCc2nc(N3CCC(Oc4ccc(F)cc4F)CC3)c(-c3cn[nH]c3)nc2C1 [Compound 119, 2-{2-[4-(2,4-difluorophenoxy)piperidin-1-yl]-3-(1H-pyrazol-4-yl)-5H,6H,7H,8H-pyrido[3,4-b]pyrazin-6-yl}acetonitrile]	–
–	–	–	–	CC(C)(O)[C@@H](O)c1cc2nc(N3CCC(Oc4ccc(F)cc4F)CC3)c(-c3cnn(C4CC4)c3)nc2cn1 (single isomer, unassigned) [Compound 573]	IC50 (GPR6; [1]): 100 to 1000 nM; IC50 (GPR3; [2]): 1000 to 30000 nM
–	–	1000 to 30000	1000 to 30000	O=S(=O)(C1COC1)N1CCc2nc(N3CCC(Oc4ccc(F)cc4F)CC3)c(-c3cn[nH]c3)nc2C1 [Compound 207, 4-(2,4-difluorophenoxy)-1-[6-(oxetane-3-sulfonyl)-3-(1H-pyrazol-4-yl)-5H,6H,7H,8H-pyrido[3,4-b]pyrazin-2-yl]piperidine]	–
–	–	100 to 1000	1000 to 30000	CCn1cc(-c2nc3c(nc2N2CCC(Oc4cc(Cl)ccc4Cl)CC2)CCN(C[C@@H](O)CO)C3)cn1 (single isomer, unassigned) [Compound 408]	–
–	–	1000 to 30000	1000 to 30000	Cn1cc(-c2nc3cncc(Cl)c3nc2N2CCC(Oc3ccc(F)cc3F)CC2)cn1 [Compound 411, 1-[8-chloro-3-(1-methyl-1H-pyrazol-4-yl)pyrido[3,4-b]pyrazin-2-yl]-4-(2,4-difluorophenoxy)piperidine]	–
–	–	–	–	CCn1cc(-c2nc3c(nc2N2CCN(C(=O)c4ccc(Cl)cc4)CC2)CCN(C(C)=O)C3)cn1 [Compound 549, 1-{2-[4-(p-chlorobenzoyl)-1-piperazinyl]-3-(1-ethyl-4-pyrazolyl)-5,6,7,8-tetrahydro-1,4,6-triaza-6-naphthyl}-1-ethanone]	IC50 (GPR6; [1]): 100 to 1000 nM; IC50 (GPR3; [2]): 1000 to 30000 nM
100 to 1000	1000 to 30000	–	–	COCC(=O)N1CCc2nc(N3CCC(Oc4ccc(F)cc4F)CC3)c(-c3ccc(F)c(N)n3)nc2C1 [Compound 628, 1-{3-(6-amino-5-fluoro-2-pyridyl)-2-[4-(2,4-difluorophenoxy)-1-piperidyl]-5,6,7,8-tetrahydro-1,4,6-triaza-6-naphthyl}-2-methoxy-1-ethanone]	–
–	–	–	–	CC(=O)N1CCc2nc(N3CCC(Oc4ccc(F)cc4F)CC3)c(-c3cccc(C#N)n3)nc2C1 [Compound 2, 6-{6-acetyl-2-[4-(2,4-difluorophenoxy)piperidin-1-yl]-5H,6H,7H,8H-pyrido[3,4-b]pyrazin-3-yl}pyridine-2-carbonitrile]	IC50 (GPR6; [5]): 100 to 1000 nM; IC50 (GPR3; [5]): 1000 to 30000 nM
–	–	–	–	1-[3-(1-methyl-4-pyrazolyl)-2-{4- [(o-nitrophenyl)methyl]-1- piperazinyl}-5,6,7,8-tetrahydro- 1,4,6-triaza-6-naphthyl]-1- ethanone [Compound 527]	IC50 (GPR6; [1]): 100 to 1000 nM; IC50 (GPR3; [2]): 1000 to 30000 nM
1000 to 30000	1000 to 30000	–	–	COCCNc1cc2nc(-c3cnn(CF)c3)c(N3CCN(Cc4ccc(F)cc4F)CC3)nc2cn1 [Compound 762, (2-methoxyethyl)(3-{4-[(2,4-difluorophenyl)methyl]-1-piperazinyl}-2-[1-(fluoromethyl)-4-pyrazolyl]-1,4,6-triaza-7-naphthyl)amine]	–
< 100	100 to 1000	–	–	CC(C)(O)C(O)c1cc2nc(-c3cn[nH]c3)c(N3CCC(=Cc4ccc(F)cc4F)CC3)nc2cn1 (stereo not shown) [Compound 780, 1-(3-{4-[(2,4-difluorophenyl)methylene]-1-piperidyl}-2-(4-pyrazolyl)-1,4,6-triaza-7-naphthyl)-2-methyl-1,2-propanediol]	–
100 to 1000	100 to 1000	–	–	CC(=O)N1CCc2nc(N3CCC(=Cc4ccccc4F)CC3)c(-c3cnn(C)c3)nc2C1 [Compound 623, 1-(2-{4-[(o-fluorophenyl)methylene]-1-piperidyl}-3-(1-methyl-4-pyrazolyl)-5,6,7,8-tetrahydro-1,4,6-triaza-6-naphthyl)-1-ethanone]	–
